Literature values as cited in PubChem BioAssay AID1259409 (Chemical Carcinogenesis Research Information System (CCRIS), 2018).

System: rodent chemically induced tumor inhibition, incidence and multiplicity
Assay: CCRIS tumor inhibitor studies

CS(=O)(=O)Nc1ccc([N+](=O)[O-])cc1Oc1ccccc1
tumour outcome (control, treated, inhibition, significance) (Carcinogen: 2-AMINO-1-METHYL-6-PHENYL-1H-IMIDAZO[4,5-B]PYRID INE [105650-23-5], Dose [Inhibitor]: 0, 400 PPM IN DIET FOR DURATION OF STUDY BEGINNING 1 D PRIOR TO CARCINOGEN TREATMENT (STUDY DURATION: 21 WK), Route [Inhibitor]: ORAL, Species: RAT, Strain/Sex: SPRAGUE-DAWLEY/FEMALE, Target Tissue: Type of Lesion: MAMMARY GLAND: DUCTAL CARCINOMA, Dose [Carcinogen]: 85 MG/KG BW 4X/WK FOR 2 WK): 30/42 (71%), 19/37 (51%), 28.2%, not significant
tumour outcome (control, treated, inhibition, significance) (Carcinogen: 7, 12-DIMETHYLBENZ(A)ANTHRACENE [57-97-6], Dose [Inhibitor]: 5 MG/KG BW TWICE WEEKLY BEGINNING 3 D BEFORE FIRST CARCINOGEN DOSE FOR 13 WK (STUDY DURATION: 13 WK), Route [Inhibitor]: SUBCUTANEOUS, Species: RAT, Strain/Sex: SPRAGUE-DAWLEY/FEMALE, Target Tissue: Type of Lesion: MAMMARY GLAND: TUMOR, Dose [Carcinogen]: 10 MG THREE TIMES BETWEEN POSTNATAL DAYS 45-59): 23/24 (95.8%), 24/25 (96.0%), -0.2%, not significant
tumour outcome (control, treated, inhibition, significance) (Carcinogen: AZOXYMETHANE (25843-45-2), Dose [Inhibitor]: 0, 0.04% 1 WK AFTER END OF DEXTRAN SODIUM SULFATE TREATMENT FOR 14 WKS (STUDY DURATION: 17 WKS), Route [Inhibitor]: DIET, Species: MOUSE, Strain/Sex: CD-1/FEMALE (10,10)/(10,10), Target Tissue: Type of Lesion: COLON: ADENOMA, Dose [Carcinogen]: 10 MG/KG ONCE, Promoter: DEXTRAN SODIUM SULFATE (9011-18-1)): 10/10 (100%), 6/10 (60%), 40%, p<0.05
tumour outcome (control, treated, inhibition, significance) (Carcinogen: AZOXYMETHANE (25843-45-2), Dose [Inhibitor]: 0, 0.04% IN DIET 1 WK AFTER END OF DEXTRAN SODIUM SULFATE TREATMENT FOR 14 WKS (STUDY DURATION: 17 WKS), Route [Inhibitor]: DIET, Species: MOUSE, Strain/Sex: CD-1/FEMALE (10,10)/(10,10), Target Tissue: Type of Lesion: COLON: ADENOCARCINOMA, Dose [Carcinogen]: 10 MG/KG ONCE, Promoter: DEXTRAN SODIUM SULFATE (9011-18-1)): 10/10 (100%), 4/10 (40%), 60%, p<0.01
tumour outcome (control, treated, inhibition, significance) (Carcinogen: AZOXYMETHANE, 25843-45-2, Dose [Inhibitor]: 0, 200 PPM IN DIET FOR DURATION OF STUDY BEGINNING 1D PRIOR TO CARCINOGEN TREATMENT (STUDY DURATION: 30 WK), Route [Inhibitor]: ORAL, Species: MOUSE, Strain/Sex: ICR/MALE, Target Tissue: Type of Lesion: COLON: CARCINOMA, Dose [Carcinogen]: 10 MG/KG BW IN SALINE 1/WK FOR 6 WK, Promoter: NONE USED): 14/28 (50%), 12/37 (32%), 36%, not significant
tumour outcome (control, treated, inhibition, significance) (Carcinogen: AZOXYMETHANE, 25843-45-2, Dose [Inhibitor]: 0, 400 PPM IN DIET FOR DURATION OF STUDY BEGINNING 1 D PRIOR TO CARCINOGEN TREATMENT (STUDY DURATION: 30 WK), Route [Inhibitor]: ORAL, Species: MOUSE, Strain/Sex: ICR/MALE, Target Tissue: Type of Lesion: COLON: CARCINOMA, Dose [Carcinogen]: 10 MG/KG BW IN SALINE 1/WK FOR 6 WK, Promoter: NONE USED): 14/28 (50%), 10/40 (25%), 50%, p<0.05
tumour outcome (control, treated, inhibition, significance) (Carcinogen: N-BUTYL-N-(4-HYDROXYBUTYL)NITROSAMINE, 3817-11-6, Dose [Inhibitor]: 0, 100 PPM IN DIET FOR 12 WK BEGINNING POST CARCINOGEN TREATMENT (STUDY DURATION: 20 WK), Route [Inhibitor]: ORAL, Species: RAT, Strain/Sex: F344/MALE, Target Tissue: Type of Lesion: URINARY BLADDER: TRANSITIONAL CELL CARCINOMA, Dose [Carcinogen]: 0.05% IN DRINKING WATER FOR 8 WK, Promoter: NONE USED): 18/20 (90%), 12/20 (60%), 33%, not significant
tumour outcome (control, treated, inhibition, significance) (Carcinogen: N-BUTYL-N-(4-HYDROXYBUTYL)NITROSAMINE, 3817-11-6, Dose [Inhibitor]: 0, 200 PPM IN DIET FOR 12 WK BEGINNING POST CARCINOGEN TREATMENT (STUDY DURATION: 20 WK), Route [Inhibitor]: ORAL, Species: RAT, Strain/Sex: F344/MALE, Target Tissue: Type of Lesion: URINARY BLADDER: TRANSITIONAL CELL CARCINOMA, Dose [Carcinogen]: 0.05% IN DRINKING WATER FOR 8 WK, Promoter: NONE USED): 18/20 (90%), 8/16 (50%), 44%, p<0.05
tumour outcome (control, treated, inhibition, significance) (Carcinogen: N-BUTYL-N-(4-HYDROXYBUTYL)NITROSAMINE, 3817-11-6, Dose [Inhibitor]: 0, 400 PPM IN DIET FOR 12 WK BEGINNING POST CARCINOGEN TREATMENT (STUDY DURATION: 20 WK), Route [Inhibitor]: ORAL, Species: RAT, Strain/Sex: F344/MALE, Target Tissue: Type of Lesion: URINARY BLADDER: TRANSITIONAL CELL CARCINOMA, Dose [Carcinogen]: 0.05% IN DRINKING WATER FOR 8 WK, Promoter: NONE USED): 18/20 (90%), 5/19 (26%), 71%, p<0.0002
tumour outcome (control, treated, inhibition, significance) (Carcinogen: N-METHYL-N-NITROSOUREA [684-93-5], Dose [Inhibitor]: 5 MG/KG BW TWICE WEEKLY BEGINNING 5 D BEFORE FIRST CARCINOGEN DOSE FOR 27 WK (STUDY DURATION: 27 WK), Route [Inhibitor]: SUBCUTANEOUS, Species: RAT, Strain/Sex: SPRAGUE-DAWLEY/FEMALE, Target Tissue: Type of Lesion: MAMMARY GLAND: TUMOR, Dose [Carcinogen]: 50 MG/KG BW TWICE ON POSTNATAL DAYS 51 AND 58): 17/18 (94%), 10/18 (55.6%), 41%, p<0.05

S=C=NCCCCc1ccccc1
tumour outcome (control, treated, inhibition, significance) (Carcinogen: 4-(METHYLNITROSAMINO)-1-(3-PYRIDYL)-1-BUTANONE, 64091-91-4, Dose [Inhibitor]: 0, 0.2 UMOL 1/D FOR 4 D ADMINISTERED PRIOR TO CARCINOGEN TREATMENT (STUDY DURATION:116D), Route [Inhibitor]: GAVAGE, Species: MOUSE, Strain/Sex: STRAIN A, Target Tissue: Type of Lesion: LUNG: ADENOMA, Dose [Carcinogen]: 10 UMOL ONCE 2 HR AFTER FINAL DOSE OF INHIBITOR, Promoter: NONE USED): 100%, 100%, 0%, not significant
tumour outcome (control, treated, inhibition, significance) (Carcinogen: 4-(METHYLNITROSAMINO)-1-(3-PYRIDYL)-1-BUTANONE, 64091-91-4, Dose [Inhibitor]: 0, 1 UMOL 1/D FOR 4 D ADMINISTERED PRIOR TO CARCINOGEN TREATMENT (STUDY DURATION:116 D), Route [Inhibitor]: GAVAGE, Species: MOUSE, Strain/Sex: STRAIN A, Target Tissue: Type of Lesion: LUNG: ADENOMA, Dose [Carcinogen]: 10 UMOL ONCE 2 HR AFTER FINAL DOSE OF INHIBITOR, Promoter: NONE USED): 100%, 42%, 58%, p<0.05
tumour outcome (control, treated, inhibition, significance) (Carcinogen: 4-(METHYLNITROSAMINO)-1-(3-PYRIDYL)-1-BUTANONE, 64091-91-4, Dose [Inhibitor]: 0, 5 UMOL 1/D FOR 4 D ADMINISTERED PRIOR TO CARCINOGEN TREATMENT (STUDY DURATION: 116D), Route [Inhibitor]: GAVAGE, Species: MOUSE, Strain/Sex: STRAIN A, Target Tissue: Type of Lesion: LUNG: ADENOMA, Dose [Carcinogen]: 10 UMOL ONCE 2 HR AFTER FINAL DOSE OF INHIBITOR, Promoter: NONE USED): 100%, 11%, 89%, p<0.05
tumour outcome (control, treated, inhibition, significance) (Carcinogen: 4-(METHYLNITROSAMINO)-1-(3-PYRIDYL)-1-BUTANONE, 64091-91-4, Dose [Inhibitor]: 0, 5 UMOL 1/D FOR 4 D ADMINISTERED PRIOR TO CARCINOGEN DOSE (STUDY DURATION: 116 D), Route [Inhibitor]: GAVAGE, Species: MOUSE, Strain/Sex: STRAIN-A, Target Tissue: Type of Lesion: LUNG: ADENOMA, Dose [Carcinogen]: 10 UMOL IN SALINE ADMINISTERED 2 HR POST LAST AGENT DOSE, Promoter: NONE USED): 100%, 32%, 68%, p<0.001
tumour outcome (control, treated, inhibition, significance) (Carcinogen: 4-(N-NITROSOMETHYLAMINO)-1-(3-PYRIDYL)-1-BUTANONE, 64091-91-4, Dose [Inhibitor]: 0, 5 UMOL/D FOR 4 CONSECUTIVE DAYS (STUDY DURATION: 16.5 WK), Route [Inhibitor]: GAVAGE, Species: MOUSE, Strain/Sex: STRAIN-A/FEMALE, Target Tissue: Type of Lesion: LUNG: ADENOMA, Dose [Carcinogen]: 10 UMOL ONCE 2 HR POST LAST AGENT DOSE, Promoter: NONE USED): 100%, 32%, 68%, not calculated
tumour outcome (control, treated, inhibition, significance) (Carcinogen: N-NITROSOMETHYLBENZYLAMINE, 937-40-6, Dose [Inhibitor]: 0, 0.4 UMOL/G IN DIET FOR 25 WK BEGINNING 2 WK PRIOR TO CARCINOGEN TREATMENT (STUDY DURATION: 25 WK), Route [Inhibitor]: ORAL, Species: RAT, Strain/Sex: F344/MALE, Target Tissue: Type of Lesion: ESOPHAGUS: TUMOR, Dose [Carcinogen]: 0.5 MG/KG BW IN 20% DMSO 1/WK FOR 15 WK, Promoter: NONE USED): 100%, 93%, 7%, not significant
tumour outcome (control, treated, inhibition, significance) (Carcinogen: N-NITROSOMETHYLBENZYLAMINE, 937-40-6, Dose [Inhibitor]: 0, 1 UMOL/G IN DIET FOR 25 WK BEGINNING 2 WK PRIOR TO CARCINOGEN TREATMENT (STUDY DURATION: 25 WK), Route [Inhibitor]: ORAL, Species: RAT, Strain/Sex: F344/MALE, Target Tissue: Type of Lesion: ESOPHAGUS: TUMOR, Dose [Carcinogen]: 0.5 MG/KG BW IN 20% DMSO 1/WK FOR 15 WK, Promoter: NONE USED): 100%, 93%, 7%, not significant
tumour outcome (control, treated, inhibition, significance) (Carcinogen: N-NITROSOMETHYLBENZYLAMINE, 937-40-6, Dose [Inhibitor]: 0, 2.5 UMOL/G IN DIET FOR 25 WK BEGINNING 2 WK PRIOR TO CARCINOGEN TREATMENT (STUDY DURATION: 25 WK), Route [Inhibitor]: ORAL, Species: RAT, Strain/Sex: F344/MALE, Target Tissue: Type of Lesion: ESOPHAGUS: TUMOR, Dose [Carcinogen]: 0.5 MG/KG BW IN 20% DMSO 1/WK FOR 15 WK, Promoter: NONE USED): 100%, 100%, 0%, not significant

O=C1COc2ccccc21
tumour outcome (control, treated, inhibition, significance) (Carcinogen: BENZO[A]PYRENE, 50-32-8, Dose [Inhibitor]: 0.034 MMOL/G IN DIET FOR 5 WK BEGINNING 1 WK PRIOR TO CARCINOGEN TREATMENT (STUDY DURATION: 21 WK), Route [Inhibitor]: ORAL, Species: MOUSE, Strain/Sex: ICR/FEMALE, Target Tissue: Type of Lesion: FORESTOMACH: TUMOR, Dose [Carcinogen]: 1 MG IN 0.2 ML CORN OIL 2/WK FOR 4 WK, Promoter: NONE USED): 95%, 89%, 6%, not significant
